# In the OligoGym collection:
# Oligonucleotides are written 5' to 3', each unit as a sugar letter and its base; * is a phosphorothioate linkage, no mark a phosphodiester; rarer units and linkages stand in square brackets, end groups in braces. Plain capitals give the bases only. d = 2'-deoxy (DNA); r = 2'-OH (RNA)
# Biological target: UBE2T
# Assay: reporter assay of Huesken 2005
# Details: siRNA
# Note: test concentration or dose not given here.
row,Substance,normalised inhibition (eCFP-eYFP dual reporter) [%]
1,sense rCrArGrArGrUrArCrArCrArArCrUrCrArArCrAdTdT / antisense rUrGrUrUrGrArGrUrUrGrUrGrUrArCrUrCrUrGdGdA,83
2,sense rCrArGrGrCrArUrCrArCrArUrGrUrUrGrGrCrAdTdT / antisense rUrGrCrCrArArCrArUrGrUrGrArUrGrCrCrUrGdGdG,90.8
3,sense rCrArUrCrGrCrArArCrUrGrUrGrUrUrGrArCrCdTdT / antisense rGrGrUrCrArArCrArCrArGrUrUrGrCrGrArUrGdTdT,84.8
4,sense rCrCrArArArArGrGrUrGrCrUrUrGrGrArGrArCdTdT / antisense rGrUrCrUrCrCrArArGrCrArCrCrUrUrUrUrGrGdTdG,84.9
5,sense rCrCrArArArUrGrGrArUrGrArCrCrUrGrCrGrAdTdT / antisense rUrCrGrCrArGrGrUrCrArUrCrCrArUrUrUrGrGdTdC,95.3
6,sense rCrCrArArUrUrUrArUrCrArUrCrCrArArArCrAdTdT / antisense rUrGrUrUrUrGrGrArUrGrArUrArArArUrUrGrGdAdG,101
7,sense rCrCrCrUrCrArArCrArUrCrGrCrArArCrUrGrUdTdT / antisense rArCrArGrUrUrGrCrGrArUrGrUrUrGrArGrGrGdAdT,106
8,sense rCrCrCrUrGrArUrGrArCrCrCrGrCrUrCrArUrGdTdT / antisense rCrArUrGrArGrCrGrGrGrUrCrArUrCrArGrGrGdTdT,91.2
9,sense rCrCrUrGrArGrArGrGrUrArCrCrCrArUrUrUrGdTdT / antisense rCrArArArUrGrGrGrUrArCrCrUrCrUrCrArGrGdAdA,78.5
10,sense rCrCrUrGrArUrGrArCrCrCrGrCrUrCrArUrGrGdTdT / antisense rCrCrArUrGrArGrCrGrGrGrUrCrArUrCrArGrGdGdT,83.5
11,sense rCrCrUrGrCrGrArGrCrUrCrArArArUrArUrUrAdTdT / antisense rUrArArUrArUrUrUrGrArGrCrUrCrGrCrArGrGdTdC,102
12,sense rCrGrArGrCrUrCrArArArUrArUrUrArGrGrUrGdTdT / antisense rCrArCrCrUrArArUrArUrUrUrGrArGrCrUrCrGdCdA,90
13,sense rCrGrArUrUrUrCrUrCrArCrUrCrCrArArUrUrUdTdT / antisense rArArArUrUrGrGrArGrUrGrArGrArArArUrCrGdGdA,107
14,sense rCrUrCrArArArUrUrGrCrCrArCrCrArArArArGdTdT / antisense rCrUrUrUrUrGrGrUrGrGrCrArArUrUrUrGrArGdAdA,68.5
15,sense rCrUrCrArGrArArUrUrUrArArArUrArUrArArUdTdT / antisense rArUrUrArUrArUrUrUrArArArUrUrCrUrGrArGdGdA,85.9
16,sense rCrUrCrCrArArUrUrUrArUrCrArUrCrCrArArAdTdT / antisense rUrUrUrGrGrArUrGrArUrArArArUrUrGrGrArGdTdG,107
17,sense rCrUrGrCrUrCrArUrGrUrCrArGrArArCrCrCrAdTdT / antisense rUrGrGrGrUrUrCrUrGrArCrArUrGrArGrCrArGdCdT,104
18,sense rCrUrUrArUrGrArGrArArArGrGrUrGrUrUrUrUdTdT / antisense rArArArArCrArCrCrUrUrUrCrUrCrArUrArArGdGdT,92.5
19,sense rCrUrUrCrCrUrCrArArGrArArUrGrCrCrArGrAdTdT / antisense rUrCrUrGrGrCrArUrUrCrUrUrGrArGrGrArArGdGdC,76
20,sense rGrArArGrArGrArUrGrCrUrUrGrArUrArArUrCdTdT / antisense rGrArUrUrArUrCrArArGrCrArUrCrUrCrUrUrCdCdT,85.9
21,sense rGrArArGrCrArUrGrCrArArGrArCrArGrArArAdTdT / antisense rUrUrUrCrUrGrUrCrUrUrGrCrArUrGrCrUrUrCdTdC,97.1
22,sense rGrArArGrGrCrCrArGrUrCrArGrCrUrArGrUrAdTdT / antisense rUrArCrUrArGrCrUrGrArCrUrGrGrCrCrUrUrCdCdT,91.9
23,sense rGrArCrCrUrGrCrGrArGrCrUrCrArArArUrArUdTdT / antisense rArUrArUrUrUrGrArGrCrUrCrGrCrArGrGrUrCdAdT,101
24,sense rGrArUrGrArGrGrArArGrArGrArUrGrCrUrUrGdTdT / antisense rCrArArGrCrArUrCrUrCrUrUrCrCrUrCrArUrCdAdG,95.1
25,sense rGrArUrUrUrGrUrCrUrGrGrArUrGrUrUrCrUrCdTdT / antisense rGrArGrArArCrArUrCrCrArGrArCrArArArUrCdCdT,75
26,sense rGrCrArArCrUrGrUrGrUrUrGrArCrCrUrCrUrAdTdT / antisense rUrArGrArGrGrUrCrArArCrArCrArGrUrUrGrCdGdA,114

row,Substance,normalised inhibition (eCFP-eYFP dual reporter) [%]
1,sense rGrCrGrArGrCrUrCrArArArUrArUrUrArGrGrUdTdT / antisense rArCrCrUrArArUrArUrUrUrGrArGrCrUrCrGrCdAdG,71.6
2,sense rGrCrUrArGrUrArGrGrCrArUrArGrArArArArGdTdT / antisense rCrUrUrUrUrCrUrArUrGrCrCrUrArCrUrArGrCdTdG,106
3,sense rGrCrUrCrArArArUrArUrUrArGrGrUrGrGrArGdTdT / antisense rCrUrCrCrArCrCrUrArArUrArUrUrUrGrArGrCdTdC,87.1
4,sense rGrCrUrGrArUrGrArGrGrArArGrArGrArUrGrCdTdT / antisense rGrCrArUrCrUrCrUrUrCrCrUrCrArUrCrArGrCdCdT,73.8
5,sense rGrCrUrUrGrArUrArArUrCrUrArCrCrArGrArGdTdT / antisense rCrUrCrUrGrGrUrArGrArUrUrArUrCrArArGrCdAdT,101
6,sense rGrGrArArGrGrArUrUrUrGrUrCrUrGrGrArUrGdTdT / antisense rCrArUrCrCrArGrArCrArArArUrCrCrUrUrCrCdAdG,96.1
7,sense rGrGrCrArUrCrArCrArUrGrUrUrGrGrCrArArGdTdT / antisense rCrUrUrGrCrCrArArCrArUrGrUrGrArUrGrCrCdTdG,87.3
8,sense rGrGrUrGrCrUrUrGrGrArGrArCrCrArUrCrCrCdTdT / antisense rGrGrGrArUrGrGrUrCrUrCrCrArArGrCrArCrCdTdT,80.4
9,sense rGrUrGrArCrUrCrCrArGrArGrUrArCrArCrArAdTdT / antisense rUrUrGrUrGrUrArCrUrCrUrGrGrArGrUrCrArCdCdA,108
10,sense rGrUrUrArUrCrArUrUrCrCrUrGrArGrArGrGrUdTdT / antisense rArCrCrUrCrUrCrArGrGrArArUrGrArUrArArCdTdT,75.4
11,sense rUrArArArGrArCrCrArArArUrGrGrArUrGrArCdTdT / antisense rGrUrCrArUrCrCrArUrUrUrGrGrUrCrUrUrUrAdTdC,63.2
12,sense rUrArUrCrArUrCrCrArArArCrArUrUrGrArUrUdTdT / antisense rArArUrCrArArUrGrUrUrUrGrGrArUrGrArUrAdAdA,67.4
13,sense rUrArUrUrArGrGrUrGrGrArGrCrCrArArCrArCdTdT / antisense rGrUrGrUrUrGrGrCrUrCrCrArCrCrUrArArUrAdTdT,57.4
14,sense rUrCrArArCrArCrArGrArArArArGrGrArArGrGdTdT / antisense rCrCrUrUrCrCrUrUrUrUrCrUrGrUrGrUrUrGrAdGdT,65.5
15,sense rUrCrArArCrArUrCrGrCrArArCrUrGrUrGrUrUdTdT / antisense rArArCrArCrArGrUrUrGrCrGrArUrGrUrUrGrAdGdG,103
16,sense rUrCrArCrUrCrCrArArUrUrUrArUrCrArUrCrCdTdT / antisense rGrGrArUrGrArUrArArArUrUrGrGrArGrUrGrAdGdA,56.8
17,sense rUrCrCrGrArUrUrUrCrUrCrArCrUrCrCrArArUdTdT / antisense rArUrUrGrGrArGrUrGrArGrArArArUrCrGrGrAdTdC,109
18,sense rUrCrUrArCrCrArGrArGrGrCrUrGrGrUrGrArCdTdT / antisense rGrUrCrArCrCrArGrCrCrUrCrUrGrGrUrArGrAdTdT,63.5
19,sense rUrCrUrGrCrUrGrGrArArGrGrArUrUrUrGrUrCdTdT / antisense rGrArCrArArArUrCrCrUrUrCrCrArGrCrArGrAdAdT,87.8
20,sense rUrCrUrGrGrArUrGrUrUrCrUrCrArArArUrUrGdTdT / antisense rCrArArUrUrUrGrArGrArArCrArUrCrCrArGrAdCdA,80.8
21,sense rUrGrArArCrCrUrCrCrUrCrArGrArUrCrCrGrAdTdT / antisense rUrCrGrGrArUrCrUrGrArGrGrArGrGrUrUrCrAdAdA,105
22,sense rUrGrArGrArGrGrUrArCrCrCrArUrUrUrGrArAdTdT / antisense rUrUrCrArArArUrGrGrGrUrArCrCrUrCrUrCrAdGdG,87.4
23,sense rUrGrArGrGrArArGrArGrArUrGrCrUrUrGrArUdTdT / antisense rArUrCrArArGrCrArUrCrUrCrUrUrCrCrUrCrAdTdC,91.6
24,sense rUrGrArUrGrArCrCrCrGrCrUrCrArUrGrGrCrUdTdT / antisense rArGrCrCrArUrGrArGrCrGrGrGrUrCrArUrCrAdGdG,75.6
25,sense rUrGrArUrUrCrUrGrCrUrGrGrArArGrGrArUrUdTdT / antisense rArArUrCrCrUrUrCrCrArGrCrArGrArArUrCrAdAdT,95.4
26,sense rUrGrGrArUrGrUrUrCrUrCrArArArUrUrGrCrCdTdT / antisense rGrGrCrArArUrUrUrGrArGrArArCrArUrCrCrAdGdA,71.9
